Source: patent US20220274954A1, “SUBSTITUTED N-PHENYL-N-AMINOUARCILS AND SALTS THEREOF AND USE THEREOF AS HERBICIDAL AGENTS” (Bayer Aktiengesellschaft, priority 2019, published 2022)

Columns and labels:
Format in all cases: in vivo
Abutilon theophrasti = assay: Post-emergence herbicidal action
Procedure: (§1) Seeds of monocotyledonous and dicotyledonous weeds and crop plants were placed in sandy loam in plastic or wood-fiber pots, covered with soil and cultivated in a greenhouse under controlled growth conditions. 2 to 3 weeks after sowing, the test plants were treated at the one-leaf stage. The compounds of the invention, formulated in the form of wettable powders (WP) or as emulsion concentrates (EC), were then sprayed onto the green parts of the plants as aqueous suspension or emulsion with addition of 0.5% additive at a water application rate of […] (converted). After the test plants had been kept in the greenhouse under optimum growth conditions for about 3 weeks, the activity of the preparations was rated visually in comparison to untreated controls. For example, 100% activity=the plants have died, 0% activity=like control plants. Tables A1 to A14 below show the effects of selected compounds of the general formula (I) according to Tables I.1 to I.34 on various harmful plants and at an application rate corresponding to 20 g/ha and less, which were obtained by the experimental procedure mentioned above.

Alopecurus myosuroides = assay: Post-emergence herbicidal action
Procedure: as §1

Amaranthus retroflexus = assay: Post-emergence herbicidal action
Procedure: as §1

Echinochloa crus-galli = assay: Post-emergence herbicidal action
Procedure: as §1

Matricaria inodora = assay: Post-emergence herbicidal action
Procedure: as §1

Pharbitis purpurea = assay: Post-emergence herbicidal action
Procedure: as §1

Veronica persica = assay: Post-emergence herbicidal action
Procedure: as §1

Viola tricolor = assay: Post-emergence herbicidal action
Procedure: as §1

Triticum aestivum = assay: Post-emergence crop plant compatibility; settings: application rate 1.25 g/ha
Procedure: as §1, with “plants.” for “plants. Tables A1 to A14 below show the effects of selected compounds of the general formula (I) according to Tables I.1 to I.34 on various harmful plants and at an application rate corresponding to 20 g/ha and less, which were obtained by the experimental procedure mentioned above.”
(§2) Here, the observed effects on selected crop plants are stated in comparison to the untreated controls (values in %).

Avena fatua = assay: Post-emergence herbicidal action; settings: application rate 20 g/ha
Procedure: as §1

Oryza sativa = assay: Post-emergence crop plant compatibility; settings: application rate 1.25 g/ha
Procedure: as §1, with “plants.” for “plants. Tables A1 to A14 below show the effects of selected compounds of the general formula (I) according to Tables I.1 to I.34 on various harmful plants and at an application rate corresponding to 20 g/ha and less, which were obtained by the experimental procedure mentioned above.”
as §2

Row | Structure (SMILES) | Abutilon theophrasti (efficacy in %) (Abutilon theophrasti; application rate 5 g/ha) [%] | Abutilon theophrasti (efficacy in %) (Abutilon theophrasti; application rate 20 g/ha) [%] | Alopecurus myosuroides (efficacy in %) (Alopecurus myosuroides; application rate 5 g/ha) [%] | Alopecurus myosuroides (efficacy in %) (Alopecurus myosuroides; application rate 20 g/ha) [%] | Amaranthus retroflexus (efficacy in %) (Amaranthus retroflexus; application rate 5 g/ha) [%] | Amaranthus retroflexus (efficacy in %) (Amaranthus retroflexus; application rate 20 g/ha) [%] | Echinochloa crus-galli (efficacy in %) (Echinochloa crus-galli; application rate 5 g/ha) [%] | Echinochloa crus-galli (efficacy in %) (Echinochloa crus-galli; application rate 20 g/ha) [%] | Matricaria inodora (efficacy in %) (Matricaria inodora; application rate 5 g/ha) [%] | Matricaria inodora (efficacy in %) (Matricaria inodora; application rate 20 g/ha) [%] | Pharbitis purpurea (efficacy in %) (Pharbitis purpurea; application rate 5 g/ha) [%] | Pharbitis purpurea (efficacy in %) (Pharbitis purpurea; application rate 20 g/ha) [%] | Veronica persica (efficacy in %) (Veronica persica; application rate 5 g/ha) [%] | Veronica persica (efficacy in %) (Veronica persica; application rate 20 g/ha) [%] | Viola tricolor (efficacy in %) (Viola tricolor; application rate 5 g/ha) [%] | Viola tricolor (efficacy in %) (Viola tricolor; application rate 20 g/ha) [%] | Triticum aestivum (efficacy in %) (Triticum aestivum) [%] | Avena fatua (efficacy in %) (Avena fatua) [%] | Oryza sativa (efficacy in %) (Oryza sativa) [%]
1 | Nn1c(C(F)(F)F)cc(=O)n(-c2cc(Sc3cccnc3OCC(=O)OC3COC3)c(Cl)cc2F)c1=O [I.1-115] | 90 | 100 | 80 | 100 | 100 | 100 | 90 | 100 | 100 | 100 | 100 | 100 | 100 | 100 | 100 | 100 | 20 |  | 
2 | N#CCOC(=O)COc1ncccc1Sc1cc(-n2c(=O)cc(C(F)(F)F)n(N)c2=O)c(F)cc1Cl [I.1-176] | 100 | 100 | 90 | 100 | 100 | 100 | 90 | 100 | 100 | 100 | 100 | 100 | 100 | 100 | 100 | 100 | 20 | 80 | 
3 | Nn1c(C(F)(F)F)cc(=O)n(-c2cc(Sc3cccnc3OCC(=O)OCc3ccccn3)c(Cl)cc2F)c1=O [I.1-286] | 100 | 100 | 100 | 100 | 100 | 100 |  |  | 100 | 100 | 100 |  | 100 | 100 | 100 | 100 | 20 | 80 | 0
